According to patent US4696920A, “Certain 2-substituted 1,3-propylidenediphosphonate derivatives, pharmaceutical compositions containing them and their use as antihypertensive agents” (priority 1984, dated 1987):
Read-outs that look alike come from different tables or passages of the source.

Key:
[1] = test system: calcium channel binding site for [^3 H]-Nitrendipine (rat brain membranes); test: [^3 H]-Nitrendipine binding to rat brain membranes; parameters: species or system rat (male Wistar); details: for modulation of [^3 H]-Nitrendipine binding (in words) / Specifically bound [^3 H]-Nitrendipine % of control value / Bound ^3 H at 1.0 μM / Bound ^3 H at 0.1 μM: Table 1a; for Specifically bound [^3 H]-Nitrendipine % of control value: compound concentration 1.0 μM; for Bound ^3 H at 1.0 μM / Bound ^3 H at 0.1 μM: ratio of [^3 H]-Nitrendipine bound at 1.0 and 0.1 μM compound
Procedure: Diltiazem hydrochloride was a generous gift from Goedecke A. G.
Suitable dilutions were made in 50 mM Tris-HCl buffer (pH 7.4) containing 150 mM NaCl and 1 mM CaCl2. The ethanol concentration in the final assay never exceeded 0.1%.
The purity of the radioligand and of the various agents tested was monitored by thin layer chromatography on silica gel plates.
The following procedure was adapted from Bellemann et al (Proc. Nat. Acad. Sci. 80, 2356, 1983), and Gould et al (Proc. Nat. Acad. Sci. 79, 3656, 1982).
Adult male Wistar rats weighing 250-300 g were anesthetized with carbon dioxide prior to decapitation. The brain was removed then immersed in ice-cold 0.32M sucrose and washed 2-3 times with fresh solution. Cerebral cortex was minced and homogenized (Potter-Elvehjem homogenizer) in 10 volumes of ice-cold sucrose solution. The homogenate was centrifuged (4° C.) at 1000×g for 15 minutes. The resulting supernatant was then centrifuged at 90000×g (30 minutes) and the pellet was washed twice with 20 ml ice-cold 50 mM Tris-HCl pH 7.4.
The final pellet was resuspended in 50 mM Tris-HCl pH 7.4/150 mM NaCl/1 mM CaCl2 to give a protein concentration of 4 mg/ml.
The membrane suspension was kept on ice until used. Binding assays were performed in subdued light to prevent dihydropyridine breakdown. Membrane protein (400 μg/tube) was incubated in 50 mM Tris-HCl buffer (pH 7.4)/150 mM NaCl/1 mM CaCl2 with the indicated concentrations of radioligand and test compounds or known calcium antagonists, in a total volume of 2 ml. After the indicated time intervals, the reaction was terminated by rapid filtration through Whatman GF/B glass fiber filters (2.4 cm diameter) on a Millipore filter holder. The assay tube was rinsed with 2 ml ice-cold 50 mM Tris-HCl pH (7.4) and the precipitate was further washed with 2×5 ml of the same buffer.
Filters were dried under a heat lamp and were extracted with 10 ml of liquid scintillation cocktail (Toluene/Triton X-100, 2/1 containing 4 g Omnifluor/1) prior to tritium determination at 48% counting efficiency.
Assays were performed in duplicate or triplicate.
Data were expressed as percent specific [^3 H]-Nitrendipine binding relative to the established control value.
Compound activity in the [^3 H]-Nitrendipine binding assay was evaluated by using the following criteria:
1. [^3 H]-Nitrendipine binding at 1.0 μM compound final concentration was either below 95% or above 105% of the control value determined in absence of compound.
2. […] This ratio is indicative of a dose response relationship within the compound concentration range tested, when the value differs appreciably from 1.0.

[2] = test system: rat trachea contraction induced by KCl depolarization; test: KCl-induced rat trachea contraction; parameters: species or system rat (male SHR, Okamoto-Aoki); details: for activity at 1 µM: Rattus norvegicus, 40 min, read-out: Contraction (% max.)
Procedure: Spontaneously hypertensive male rats (SHR) Okamoto-Aoki Strain, weighing 300-400 g were used in this study. They were killed by bleeding after Pentobarbital anesthesia (Nembutal, Abbott Co, 40 mg/kg). Their entire trachea was quickly removed and dissected free of fat and connective tissue in Krebs-Ringer solution. A strip (4 mm×40 mm), obtained by spirally cutting the trachea, was immediately suspended in a 50 ml Krebs-Ringer solution and continuously bubbled with a O2 /CO2 (95/5) mixture. Bath temperature was maintained at 37±1° C. The composition (mM) of the Krebs-Ringer solution modified by Nghiem, was as follows: NaCl, (118.0); KCl, (4.7); CaCl2, (2.5); MgCl2, (1.18); NaHCO3, (12.5); KH2 P04, (1.18); glucose, (5.5) in bidistilled water (pH 7.4). Each strip was equilibrated under initial tension (1.5-2 g) for 1-2 hours and the bath solution changed every 30 min. A contractile or relaxant response was isometrically measured with a force-displacement transducer (Ugo-Basile) and recorded on a polygraph (Beckman).
After equilibration, KCl was added to the bath at 65 mM final concentration. This concentration produced maximum trachea contraction. Under these conditions, a plateau phase showing a tonic sustained contraction was reached within 30 minutes. Drugs were added 30 minutes after the plateau phase has been reached (final concentration=1.0 μM). […] Recordings of the residual trachea contraction were made 40 minutes after drug addition to the bathing fluid. The initial KCl induced contraction was taken as the maximum KCl response (100%). Results were expressed as % of maximal contraction. Nifedipine, Prenylamine, Flunarizine and Diltiazem were used as reference standards to validate this assay.
All 1,3-diphosphonates and drugs were dissolved in saline (0.9% NaCl) except when water insoluble, then the compounds were dissolved in 2% ethanol. The final concentration of ethanol used has been shown not to interfere with the assay.
Results are expressed as mean values±SEM, the Student's t-test was used for statistical analysis.

[3] = final concentration 1.0 μM, 65 mM KCl, 40 minutes after drug addition, mean ± SEM

| Compound | modulation of [^3 H]-Nitrendipine binding (in words) [1] | Specifically bound [^3 H]-Nitrendipine % of control value [1] | Bound ^3 H at 1.0 μM / Bound ^3 H at 0.1 μM [1] | activity at 1 µM [2] [%] | activity on KCl-induced trachea contraction (in words) ([2]; final concentration 1.0 μM) | activity at 1 µM [2, 3] [%] | % [^3 H]-Nitrendipine bound ([1]; reference standards at 1 μM) [%] |
| --- | --- | --- | --- | --- | --- | --- | --- |
| CCCCCC(CP(=O)(OCCCC)OCCCC)CP(=O)(OCCCC)OCCCC [Compound 66] | strong inhibitors | 26 % of control value | 0.387 | 88.5 ± 0.5 | – | – | – |
| CCCCOP(=O)(CC(CCCC1CCCCC1)CP(=O)(OCCCC)OCCCC)OCCCC [Compound 68, Tetrabutyl 2-(3-Cyclohexylpropyl)-1,3-propylidenediphosphonate] | strong inhibitors | 0 % of control value | 0.000 | 100 ± 4 | – | – | – |
| CCCCOP(=O)(CC(Cc1ccc(-c2ccccc2)cc1)CP(=O)(OCCCC)OCCCC)OCCCC [Compound 84] | – | 80 % of control value | 0.886 | 98.5 ± 2.5 | – | – | – |
| CCCCOP(=O)(CC(CP(=O)(OCCCC)OCCCC)C(c1ccccc1)c1ccccc1)OCCCC [Compound 85] | – | 112 % of control value | 1.082 | 96.2 ± 0.8 | – | – | – |
| CCCCOP(=O)(CC(CP(=O)(OCCCC)OCCCC)c1ccccn1)OCCCC [Compound 86] | – | 98 % of control value | 1.052 | 89 ± 2 | – | – | – |
| CCCCOP(=O)(CC(Cc1ccncc1)CP(=O)(OCCCC)OCCCC)OCCCC [Compound 87] | – | 93 % of control value | 0.967 | 71.9 ± 1.9 | potent pharmacological activity | – | – |
| CCCCOP(=O)(CC(CCCc1cccnc1)CP(=O)(OCCCC)OCCCC)OCCCC [Compound 88] | strong inhibitors | 69 % of control value | 0.760 | 56.3 ± 5.9 | potent pharmacological activity | – | – |
| CC(C)COP(=O)(CC(CCCc1ccccc1)CP(=O)(OCC(C)C)OCC(C)C)OCC(C)C [Compound 111] | – | 57 % of control value | 0.809 | – | – | 100 ± 1.5 | – |
| CCCCCOP(=O)(CC(CCCc1ccccc1)CP(=O)(OCCCCC)OCCCCC)OCCCCC [Compound 112, Tetrapentyl 2-(3-phenylpropyl)-1,3-propylidenediphosphonate] | – | 0 % of control value | 0.645 | – | – | 84 ± 3 | – |
| CCCCCCOP(=O)(CC(CCCc1ccccc1)CP(=O)(OCCCCCC)OCCCCCC)OCCCCCC [Compound 113, Tetrahexyl 2-(3-phenylpropyl)-1,3-propylidenediphosphonate] | strong inhibitors | 20 % of control value | 0.621 | – | – | 90 ± 1.5 | – |
| CCCCCOP(=O)(CC(CCCc1ccccc1)CP(=O)(OCC)OCCCCC)OCC (stereo not drawn) [Compound 117, Bis(ethyl, pentyl) 2-(3-phenylpropyl)-1,3-propylidenediphosphonate] | strong inhibitors | 79 % of control value | 0.950 | 60 ± 4 | potent pharmacological activity | – | – |
| CCN(CC)CCCCCCCCOC(=O)c1cc(OC)c(OC)c(OC)c1 [TMB-8, reference compound] | – | – | – | – | – | – | 95 |
